Data taken from patent US6001801A, “Cyclic peptide analogs of somatostatin” (Biomeasure, Inc., priority 1998, dated 1999).
Bridge positions count the residues as written; N and C are the ends. Square brackets hold non-standard residues; d marks the D form. Peptide text beside a SMILES is read from it.

target: T1, human SSTR-5 (Homo sapiens, UniProt P35346); test: Human SSTR-5 binding assay ([125I-Tyr11]somatostatin-14 displacement, membranes of transfected CHO-K1 cells); conditions: ratio greater than one = more selective for SSTR-5 than for SSTR-2
T1 construct: expressed in transfected cells; host or cells: CHO-K1
T1 sequence (P35346 whole entry): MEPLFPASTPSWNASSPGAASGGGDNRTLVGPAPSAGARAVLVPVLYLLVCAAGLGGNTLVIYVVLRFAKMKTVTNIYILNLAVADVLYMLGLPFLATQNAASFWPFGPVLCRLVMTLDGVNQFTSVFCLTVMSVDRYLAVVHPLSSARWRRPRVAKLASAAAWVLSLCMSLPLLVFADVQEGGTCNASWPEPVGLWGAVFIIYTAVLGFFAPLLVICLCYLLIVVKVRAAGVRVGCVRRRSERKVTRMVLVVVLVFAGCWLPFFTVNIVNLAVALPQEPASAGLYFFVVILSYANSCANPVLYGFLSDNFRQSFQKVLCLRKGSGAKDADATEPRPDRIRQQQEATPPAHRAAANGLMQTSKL
Experimental: (2) Human SSTR-5 Binding Assay
CHO-K1 cells were transfected with the human SSTR-5 cDNA, described in Yamada, et al., Biochem Biophys. Res. Commun., 195-844 (1993) using standard techniques known in the molecular biological art. See, e.g., Patel, et al., Biochem. Biophys. Res. Comm. 198:605 (1994). Crude membranes were prepared by homogenization of the human SSTR-5 transfected CHO-K1 cells in 20 ml of ice-cold 50 mM Tris-HCl with a POLYTRON™ homogenizer (setting 6, 15 sec). Buffer was added to obtain a final volume of 40 ml, and the homogenate was centrifuged in a SORVAL™ SS-34 rotor at 39,000 g for 10 min at 0-4° C. The resulting supernatant was decanted and discarded. The pellet was rehomogenized in ice-cold buffer, diluted, and centrifuged as before. The final pellet was resuspended in the 10 mM Tris HCl and held on ice for the receptor binding assay.
The final assay volume was 0.3 ml. The incubations were terminated by rapid filtration through GF/C filters (pre-soaked in 0.3% polyethylenimine for 30 min) using a Brandel filtration manifold. Each tube and filter was then washed three times with 5 ml aliquots of ice-cold buffer.

Q: For `C[C@@H](O)[C@@H]1NC(=O)[C@H](CCCCN)NC(=O)[C@@H](Cc2c[nH]c3ccccc23)NC(=O)[C@H](Cc2ccccc2)NC(=O)[C@H](Cc2ccccc2)NC(=O)[C@H](N)CSSC[C@@H](C(N)=O)NC(=O)[C@H](Cc2ccccc2)NC1=O` [Analog II, H2 -c[D-Cys-Phe-Phe-D-Trp-Lys-Thr-Phe-Cys] -NH2] (H-[dC]FF[dW]KTFC-NH2; disulfide 1-8), which “SSTR-2/SSTR-5 (ratio of the Ki's for human SSTR-2 and human SSTR-5)” value is on record?
A: 4.94

Q: How did the “SSTR-2/SSTR-5 (ratio of the Ki's for human SSTR-2 and human SSTR-5)” value turn out when `NCCCC[C@@H]1NC(=O)[C@@H](Cc2c[nH]c3ccccc23)NC(=O)[C@H](Cc2ccccc2)NC(=O)[C@H](Cc2ccccc2)NC(=O)[C@@H](N)CSSC[C@@H](C(N)=O)NC(=O)[C@H](Cc2ccccc2)NC(=O)[C@H](CO)NC1=O` [Analog IV, H2 -c[Cys-Phe-Phe-D-Trp-Lys-Ser-Phe-Cys] -NH2] (H-CFF[dW]KSFC-NH2; disulfide 1-8) was run?
A: 20.8

Q: With `NCCCC[C@@H]1NC(=O)[C@@H](Cc2c[nH]c3ccccc23)NC(=O)[C@H](Cc2c[nH]c3ccccc23)NC(=O)[C@H](Cc2ccccc2)NC(=O)[C@@H](N)CSSC[C@@H](C(N)=O)NC(=O)[C@H](Cc2ccccc2)NC(=O)[C@H](CO)NC1=O` [Analog III, H2 -c[Cys-Phe-Trp-D-Trp-Lys-Ser-Phe-Cys] -NH2] (H-CFW[dW]KSFC-NH2; disulfide 1-8) as the molecule, how does the “SSTR-2/SSTR-5 (ratio of the Ki's for human SSTR-2 and human SSTR-5)” value read?
A: 12.1

Q: For “H2 -c[Cys-Phe-Phe-D-Trp-Lys-Thr-Phe-Cys] -NH2 [Analog I]”, which “SSTR-2/SSTR-5 (ratio of the Ki's for human SSTR-2 and human SSTR-5)” value is on record?
A: 40.2

Q: How did the “SSTR-2/SSTR-5 (ratio of the Ki's for human SSTR-2 and human SSTR-5)” value turn out when “H2 -c[Cys-Asn-Phe-Phe-D-Trp-Lys-Thr-Phe-Cys]-NH2 [Analog V]” was run?
A: 53.1
